According to patent publication US20260206761A1, “HETEROARYL-TRIAZOLE COMPOUNDS AS PESTICIDES” (Bayer Aktiengesellschaft, priority 2019, published 2026):

Experiments:
Assay type in all cases: in vivo
[1] = system: larvae of the southern green stink bug (Nezara viridula); assay: Nezara viridula spray test; details: 96 h, after 4 days; for mortality at 100 g/ha: application rate 100 g/ha
Outline: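 Larva-infested barley (Hordeum vulgare) plants received a spray of test solution prepared from an acetone/DMF concentrate diluted in emulsifier-containing water (1000 ppm). Percent kill read 4 days later; 0% means no stink bugs dead.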

[2] = system: larvae of the banded cucumber beetle (Diabrotica balteata); assay: Diabrotica balteata spray test; details: 168 h, after 7 days, read-out: activity (efficacy: seedlings grown); for pest or weed control at 100 g/ha: application rate 100 g/ha (=32 pg/well); for pest or weed control at 500 g/ha: application rate 500 g/ha (=160 pg/well)
Outline: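 Read-out is % efficacy at day 7, 0% meaning no seedling growth and 100% growth equal to uninfested untreated controls. Test solutions (acetone/DMF concentrate diluted with water carrying 1000 ppm emulsifier) were sprayed onto 1-day-germinated wheat seeds, 5 per well, before infestation with 10-20 larvae.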

[3] = system: green peach aphid (Myzus persicae); assay: Myzus persicae oral test; details: 120 h, application rate 4 ppm, after 5 days
Outline: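 Five-day oral feeding assay measuring percent mortality of a mixed aphid population that draws compound-containing sugared IPL41 medium through sealing parafilm; the test preparation derives from 1 part compound per 100 parts acetone, diluted with water.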

[4] = system: adult unfed cat fleas (Ctenocephalides felis); assay: Ctenocephalides felis oral test; details: 48 h, read-out: activity (mortality)
Outline: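 About 20 adult unfed fleas fed through parafilm on cattle blood containing compound (DMSO stock diluted in blood), blood held at 37 °C and fleas at room temperature. Mortality (%) scored after 2 days.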

[5] = system: Aedes aegypti strain MONHEIM; assay: Aedes aegypti test (AEDSAE surface treatment & contact assay); details: 24 hours after contact, read-out: efficacy (mortality); for mortality at 4 mg/m2: surface concentration 4 mg/m^2, exposure 30 minutes; for mortality at 20 mg/m2: surface concentration 20 mg/m^2, exposure 30 minutes
Outline: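 Percent mortality was read 24 h after adult MONHEIM mosquitoes were held for 30 min on a tile treated with compound. Compound applied from acetone solution (2 mg/ml) containing 2000 ppm rapeseed oil methyl ester, after evaporation.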

[6] = system: Blattella germanica strain PAULINIA; assay: whole plant or invertebrate; details: read-out: efficacy (mortality)
Method: Blattella germanica Test (BLTTGE Surface Treatment & Contact Assay)
(§1) Solvent: Aceton+2000 ppm rapeseed oil methyl ester (RME)
In order to produce a sufficient, active ingredient containing solution it is necessary to solve the test compound in the solvent-mix (acetone at 2 mg/ml/RME 2000 ppm). This solution is pipetted onto a glazed tile and after evaporation of the acetone, adult animals of the species Blattella germanica strain PAULINIA are placed onto the dried surface. The exposure time is 30 minutes.
Mortality in percent (%) is determined 24 hours after contact of the insects to the treated surface. 100% mortality means that all tested insects are dead, whereas 0% means that no insect died.

[7] = system: adult engorged female ticks (Rhipicephalus microplus); assay: Rhipicephalus (Boophilus) microplus injection test; details: 168 h, egg deposition after 7 days, read-out: activity (efficacy: infertile eggs); for pest or weed control at 4 pg: application rate 4 pg/animal; for pest or weed control at 0.02 mg: application rate 20 μg/animal
Outline: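 Compound in DMSO (10 mg per 0.5 mL, then diluted with DMSO to test concentration); 1 μL injected into the abdomen of each of five engorged females, then held in a climate chamber. Fertile egg deposition checked at 7 days; efficacy 100% = all eggs infertile, 0% = all fertile.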

[8] = system: Anopheles funestus strain FUMOZ-R; assay: Anopheles funestus test (ANPHFU surface treatment & contact assay); details: 24 hours after contact, read-out: efficacy (mortality); for mortality at 4 mg/m2: surface concentration 4 mg/m^2, exposure 30 minutes; for mortality at 20 mg/m2: surface concentration 20 mg/m^2, exposure 30 minutes
Method: Anopheles funestus Test (ANPHFU Surface Treatment & Contact Assay)
as §1
In order to produce a sufficient, active ingredient containing solution it is necessary to solve the test compound in the solvent-mix (acetone at 2 mg/ml/RME 2000 ppm). This solution is pipetted onto a glazed tile and after evaporation of the acetone, adult mosquitoes of the species Anopheles funestus strain FUMOZ-R (Hunt et al., Med. Vet. Entomol. 2005 September; 19(3): 271-275) are placed onto the dried surface. The exposure time is 30 minutes. Mortality in percent (%) is determined 24 hours after contact of the insects to the treated surface. 100% mortality means that all tested insects are dead, whereas 0% means that no insect died.

[9] = system: adult cat fleas (Ctenocephalides felis); assay: Ctenocephalides felis in-vitro contact test, adult cat flea; details: application rate 5 μg/cm^2 (=500 g/ha), after 48 hours, read-out: activity (efficacy: fleas dead or moribund)
Outline: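 Efficacy, as % of fleas dead or moribund, was read 48 h after 5-10 adult cat fleas were confined in glass tubes whose walls carried dried compound film (900 ppm, […]). Fleas failing to escape upward from a 45-50° C plate within 5 min counted as dead or moribund.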

[10] = system: green peach aphid (Myzus persicae); assay: Myzus persicae spray test; details: 120 h, application rate 500 g/ha, after 5 days
Outline: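 Chinese cabbage leaf disks carrying all instars of M. persicae sprayed with compound in acetone/DMF, diluted in water with 1000 ppm alkylarylpolyglycol ether emulsifier. Percent mortality scored after 5 days (100% = all aphids killed).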

[11] = system: adult brown dog ticks (Rhipicephalus sanguineus); assay: Rhipicephalus sanguineus in-vitro contact test, adult brown dog ticks; details: after 48 hours, read-out: activity (efficacy: ticks dead or moribund); for pest or weed control at 100 g/ha: application rate 1 pg/cm^2 (=100 g/ha)
Outline: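 Glass tubes are coated with compound dissolved in acetone, a 900 ppm solution yielding 5 μg/cm^2 on the inner surface. Adult ticks (5-10 per tube) are kept on the dry film at room temperature for 48 h, then those unable to escape 45-50° C heat are counted as dead or moribund.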

[12] = system: Culex quinquefasciatus strain P00; assay: Culex quinquefasciatus test (CULXFA surface treatment & contact assay); details: 24 hours after contact, read-out: efficacy (mortality)
Outline: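 Compound in acetone (2 mg/ml) with 2000 ppm rapeseed oil methyl ester, dried onto glazed tile. Adult mosquitoes exposed to the treated surface for 30 min. Percent mortality scored 24 h after contact.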

[13] = system: two spotted spidermite (Tetranychus urticae); assay: Tetranychus urticae spray test OP-resistant; details: 144 h, after 6 days
Method: Tetranychus urticae—Spray Test OP-Resistant
Solvent: 78.0 parts by weight acetone • 1.5 parts by weight dimethylformamide
Emulsifier: alkylarylpolyglycol ether
To produce a suitable preparation of active compound, 1 part by weight of active compound is mixed with the stated amount of solvents and is diluted with water, containing an emulsifier concentration of 1000 ppm, to the desired concentration. Further test concentrations are prepared by dilution with emulsifier containing water.
French bean (Phaseolus vulgaris) leaf disks infected with all instars of the two spotted spidermite (Tetranychus urticae), are sprayed with a preparation of the active ingredient of the desired concentration.
After 6 days mortality in % is determined. 100% means all spider mites have been killed and 0% means none of the spider mites have been killed.

[14] = system: fall armyworm larvae (Spodoptera frugiperda); assay: Spodoptera frugiperda spray test; details: 168 h, read-out: activity (mortality)
Outline: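 Larvae of fall armyworm placed on dried maize leaf sections previously sprayed with emulsified compound (acetone/DMF solvent, water with 1000 ppm emulsifier). Percent of caterpillars killed recorded on day 7, 0–100% scale.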

[15] = system: Rhipicephalus microplus larvae (strain Parkhurst, resistant against synthetic pyrethroids); assay: Rhipicephalus (Boophilus) microplus in-vitro contact test, larval cattle tick; details: after 48 hours, read-out: activity (efficacy: larvae dead or moribund)
Outline: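 Larvae (20-50 per tube) exposed to dry compound film on glass tube walls, 5 μg/cm^2 at 900 ppm, applied from acetone. After 48 h at 27° C./85% RH, tubes tapped and negative geotaxis scored; efficacy as percent dead or moribund larvae.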

Question: For CC(NC(=O)c1cc(Cl)cc(S(C)(=O)=O)c1)c1nc(Br)nn1-c1ncccn1 (centres unmarked) [I-34], which mortality at 100 g/ha [1] is on record?
Answer: 100%

Question: What about the pest or weed control at 100 g/ha [2] of the same compound?
Answer: 100%

Question: And the mortality at 4 ppm [3]?
Answer: 100%

Question: What about the mortality at 100 ppm [4] of the same compound?
Answer: 100%

Question: And the mortality at 4 mg/m2 [5]?
Answer: 80 to 100%

Question: What about the mortality at 20 mg/m2 [5] of the same compound?
Answer: 80 to 100%

Question: What about the mortality at 20 mg/m2 [6] of the same compound?
Answer: 80 to 100%

Question: What about the pest or weed control at 4 pg [7] of the same compound?
Answer: 100%

Question: What about the mortality at 4 mg/m2 [8] of the same compound?
Answer: 80 to 100%

Question: And the mortality at 20 mg/m2 [8]?
Answer: 80 to 100%

Question: What about the pest or weed control at 5 µg/cm2 [9] of the same compound?
Answer: 90%

Question: Which results are given for Cc1nc([C@H](C)NC(=O)c2csc(Cl)c2)n(-c2ncccn2)n1 [II-24]?
Answer: mortality at 500 g/ha [10]: 90%; pest or weed control at 500 g/ha [2]: 80%; pest or weed control at 100 g/ha [11]: 100%; pest or weed control at 5 µg/cm2, 500 g/ha ([11]; application rate 5 μg/cm^2 (=500 g/ha)): 100%; mortality at 4 mg/m2 ([12]; surface concentration 4 mg/m^2, exposure 30 minutes): 80 to 100%; mortality at 20 mg/m2 ([12]; surface concentration 20 mg/m^2, exposure 30 minutes): 80 to 100%; mortality at 500 g/ha ([13]; application rate 500 g/ha): 90%; mortality at 4 mg/m2 [5]: 80 to 100%; mortality at 20 mg/m2 [5]: 80 to 100%; pest or weed control at 4 pg [7]: 100%; pest or weed control at 0.02 mg [7]: 100%; mortality at 4 mg/m2 [8]: 80 to 100%; mortality at 20 mg/m2 [8]: 80 to 100%; pest or weed control at 5 µg/cm2 [9]: 100%

Question: Which mortality at 100 g/ha [1] does the source give for CCS(=O)(=O)c1cc(C(=O)N[C@@H](C)c2ncnn2-c2ccc(C#N)cn2)cc(C(F)(F)F)c1 [II-33] here?
Answer: 100%

Question: What about the mortality at 500 g/ha ([1]; application rate 500 g/ha) of the same compound?
Answer: 100%

Question: And the pest or weed control at 100 g/ha [2]?
Answer: 100%

Question: And the pest or weed control at 500 g/ha [2]?
Answer: 100%

Question: And the pest or weed control at 100 g/ha [11]?
Answer: 80%

Question: And the mortality at 4 ppm [3]?
Answer: 100%

Question: What about the mortality at 100 g/ha [14] of the same compound?
Answer: 100%

Question: And the mortality at 500 g/ha [14]?
Answer: 83%

Question: What about the mortality at 100 ppm [4] of the same compound?
Answer: 100%

Question: And the mortality at 100 g/ha ([13]; application rate 100 g/ha)?
Answer: 90%

Question: And the mortality at 4 mg/m2 [5]?
Answer: 80 to 100%

Question: What about the mortality at 20 mg/m2 [5] of the same compound?
Answer: 80 to 100%

Question: And the pest or weed control at 100 g/ha ([15]; application rate 1 pg/cm^2 (=100 g/ha))?
Answer: 100%

Question: What about the pest or weed control at 500 g/ha ([15]; application rate 5 pg/cm^2 (=500 g/ha)) of the same compound?
Answer: 100%

Question: What about the pest or weed control at 4 pg [7] of the same compound?
Answer: 100%

Question: And the pest or weed control at 0.02 mg [7]?
Answer: 100%
